The subject of series [1] is stress ulcer. Briefly: Stress ulcer test (immobilized rats, ulcer index). In kind it is in vivo, female wistar rats. Particulars: for U.I. (delta %): control = 100. As for the experimental part: For the following tests 200-250 g female wistar rats were fasted for 24 hours before the experiment. Water was given ad libium. A. STRESS ULCER TEST The rats were immobilized on their backs for 24 hours. After immobilization the animals were killed, and their stomachs were prepared for ulcer analysis. The gastric cytoprotective effect of PCCD was tested by administering it in the following way: Case A: At 0, 6th, 12th and 18th hour after the immobilization. Administrations were carried out both ip and per os. In both cases the animals were killed and their stomachs prepared for ulcer analysis. In each experiment the ulcer index was calculated. In the calculation of the U.I., each mm^2 of ulcer or erosion is 1 point. Bleeding results in an additional 5 points. Perforation means an additional 10 points. The number of animals is (n=20) in each group. Mean (%)±S.E.M. is calculated. Statistical analysis is done according to the Student's T-Test. Significance level, p is less than 0.05.

Series [2] concerns gastric lesions on the corpus mucosa. Briefly: Gastric cytoprotective test (ethanol-induced gastric lesions, A. Robert). The class given is in vivo, rats. Particulars: for ED50: Rattus norvegicus, PCCD values relate to active ingredient. As to the method: For the following tests 200-250 g female wistar rats were fasted for 24 hours before the experiment. Water was given ad libium.
C. GASTRIC CYTOPROTECTIVE TEST
The following method according to the abovementioned reference was employed:
The cytoprotective substances were applied before giving ethanol p.o. or subcutaneously. As controls, prostacylin (PGI2) and PGE2 were used.
Evaluation was carried out by killing the animals and then removing their stomachs. The number of gastric lesions was determined in each case. The dose of the cytoprotective compounds giving a 50% inhibiting effect was determined. The number of gastric erosions in the stomachs of animals not treated with a cytoprotective agent was designated 100%.

A short description of series [3]: Stability on oral application (acidic pH of the stomach). The conditions noted are these: oral administration. In kind it is physicochemical.
Series [4] deals with gastric mucosa. Particulars: in vivo; cited from earlier work.
The conditions of series [5]: in vivo; cited from earlier work.
Setting [6] is: 100 micrograms/kg i.p., PCCD data calculated for active ingredient.

The source of these data is US4623641A, “Method of treating ulcers and erosions in the gastrointestinal system using PGI2 -methyl ester-beta cyclodextrin inclusion complexes” (Chinoin Gyogyszer es Vegyeszeti Termekek Gyara R.T., priority 1985, dated 1986).

Each structure is given as a SMILES string.

By ED50 is commonly meant the midpoint of the dose-response relation. In the case of `CCCCC[C@H](O)/C=C/[C@@H]1[C@H]2C/C(=C/CCCC(=O)O)O[C@H]2C[C@H]1O` [PGI2, prostacyclin], in series [1] (setting [6]), the “U.I. ± S.E.M.” value was 5.4 ± 1.54 and the “U.I. (delta %)” value was 70.0%. The same compound registered a median effective dose (ED50) in series [2] (po, orally) of 1.8 mg/kg. This compound gave a median effective dose (ED50) in series [2] (sc, subcutaneously) of 0.04 mg/kg. Also, the “cytoprotective effect compared with PGE2” value in series [2] (administered subcutaneously) is “stronger cytoprotective effect than PGE2”. Further, in series [3], the “stability compared with PGE2” value is “more unstable than is PGE2”.
Regarding `CCCCC[C@H](O)/C=C/[C@H]1[C@H](O)CC(=O)[C@@H]1C/C=C\CCCC(=O)O` [PGE2], the ED50 in series [2] (po, orally) turned out to be 0.03 mg/kg. Moreover, in series [2] (sc, subcutaneously), the ED50 turned out to be 0.1 mg/kg. Further, in series [2] (oral application), the “cytoprotective effect compared with PGI2” value is “more effective”. In series [4], the “decreasing the blood loss of the gastric mucosa induced by non-steroidal antiphlogistics” value is recorded as “significantly effective” and the “therapy of peptic ulcers” value was “significantly effective”. In addition, in series [5], the side effects result was “diarrhogen side effects”.
For the compound `OC[C@H]1O[C@@H]2O[C@H]3[C@H](O)[C@@H](O)[C@@H](O[C@H]4[C@H](O)[C@@H](O)[C@@H](O[C@H]5[C@H](O)[C@@H](O)[C@@H](O[C@H]6[C@H](O)[C@@H](O)[C@@H](O[C@H]7[C@H](O)[C@@H](O)[C@@H](O[C@H]8[C@H](O)[C@@H](O)[C@@H](O[C@H]1[C@H](O)[C@H]2O)O[C@@H]8CO)O[C@@H]7CO)O[C@@H]6CO)O[C@@H]5CO)O[C@@H]4CO)O[C@@H]3CO` [Beta-cyclodextrin], in series [1] (5 mg/kg i.p.), the “U.I. ± S.E.M.” value is reported as 6.8 ± 2.15 and the “U.I. (delta %)” value is reported as 77.9%.
Consider `COc1ccc2c(c1)c(CC(=O)O)c(C)n2C(=O)c1ccc(Cl)cc1` [indomethacin], for which the side effects result in series [5] was “ulcerogenic side effects”.
For the compound `CN/C(=N/CCSCc1nc[nH]c1C)NC#N` [Cimetidine], the “U.I. ± S.E.M.” value is given as 3.0 ± 1.08 in series [1] (10 mg/kg i.p.) and 2.82 ± 1.36 in series [1] (10 mg/kg p.o.). Further, the “U.I. (delta %)” value in series [1] (10 mg/kg i.p.) is listed as 38.9%; in series [1] (10 mg/kg p.o.), 36.7%.
